Read-outs that look alike come from different tables or passages of the source.
Legend:
MYO-29 cell line [1] = experiment: Different concentrations of carnosine in 1 L bioreactor culture, MYO-29 cell line; type: cell-based
Method: Four bioreactors were inoculated with 0.4×10^6 cells/ml with a 1 L working volume of a MYO-29 cell line in a serum free inoculation medium. All the bioreactors were all fed 5% (v/v) of a feed medium on day 7 of the 14-day run. The conditions of the bioreactor were held at a temperature of 37° C., a pH of 7.00, and a dissolved oxygen level at 30% air saturation.
All cells were cultured for four days at which point the temperature was shifted in all of the bioreactors to 31° C. […] All bioreactors were harvested on day 12 of the production run. Samples were taken throughout the run to monitor the progress of the cell culture medium. The controls performed generally as expected, except one control had slightly lower daily viabilities than previously seen.

[2] = system: human or rodent transformed and neoplastic cells; conditions: cited from earlier work
[3] = system: human diploid fibroblasts and human fetal lung (primary cell lines); conditions: 20 mM in culture media; cited from earlier work
MYO-29 cell line [4] = experiment: Carnosine addition to 1 L bioreactor fed-batch culture, MYO-29 cell line; type: cell-based; conditions: 20 mM carnosine added day 4
Method: Five bioreactors were inoculated with 0.9×10^6 cells/ml with a 1 L working volume of a MYO-29 cell line in a serum free inoculation medium. All the bioreactors were fed 5% (v/v) of a feed medium on days 3, 5, 7, and 12 of a 14-day run. A day 10 feed of 5% (v/v) of the feed medium was added to two of the control bioreactors and one containing carnosine. The conditions of the bioreactors were held at a temperature of 37° C., a pH of 7.00, and a dissolved oxygen level at 30% air saturation.
The bioreactors were harvested on day 14 of the production run. Samples were taken throughout the run to monitor the progress of the cell culture medium. The controls performed as expected.

MYO-29 cell line [5] = experiment: Dish scale carnosine experiments, MYO-29 cell line culture; type: cell-based; conditions: 10 mM carnosine added to dishes on day 4, 7 or 10; harvested day 12; vs no carnosine
Method: A MYO-29 cell line was cultured in a serum free production medium in a bioreactor with a 1 L working volume and was temperature shifted from 37° C. to 31° C. on day 4. The pH of the bioreactor was held at 7.00 and the dissolved oxygen was at 30% air saturation. Cell culture medium was then taken from the bioreactor on day 4, day 7, and day 10 and put into culture dishes with an 8 ml working volume and placed into a 31° C. incubator, where the dish cultures were cultured until day 12. The cells were supplemented with a feed medium on days 5 and 7. On day 5, 10% (v/v) of feed medium was added to the cell cultures and on day 7, 5% (v/v) of feed medium was added to the cell cultures. 10 mM of carnosine was added on day 4, day 7, and day 10, respectively, to the dishes and the cell culture medium was harvested on day 12.

[6] = system: Chinese Hamster Ovary (CHO) Cell Line Producing Recombinant TNFR Fusion Protein; experiment: Carnosine in 1 L bioreactor culture of cells producing recombinant TNFR fusion protein; type: cell-based; conditions: 20 mM carnosine added day 2
Method: A TNFR fusion protein cell line was cultured in a serum free production medium in a bioreactor with a 1 L working volume. On day 1, the temperature was shifted from 37° C. to 29.5° C., sodium butyrate was added to a final concentration of 1 mM, and HMBA was added to a final concentration of 3 mM. The pH of the bioreactor was held at 6.95 and the dissolved oxygen was at 60% air saturation. On day 2, carnosine was added to the culture to a final concentration of 20 mM. The cells were supplemented with a 5% (v/v) feed medium on days 3, 6, 8, and 10. The cell culture medium was harvested on day 12. Four separate control bioreactors were run in which CHO cells expressing a recombinant TNFR fusion protein were grown under conditions identical to those described above, except that carnosine was not added on day 2. The control data in FIGS. 4-11 is the average of the four control bioreactor runs.

[7] = addition of the chemical agent to cell culture; cited from earlier work
[8] = vs average of 4 control bioreactors

SMILES: NCCC(=O)N[C@@H](Cc1cnc[nH]1)C(=O)O [carnosine]
- high molecular weight aggregates (MYO-29 cell line [1]; 20 mM or 40 mM carnosine added day 4, compared to the controls): decrease
- daily titer (MYO-29 cell line [1]; 20 mM or 40 mM carnosine added day 4, compared with one of the controls): similar
- daily cell viability upon being harvested (MYO-29 cell line [1]; 20 mM or 40 mM carnosine added day 4, harvest day 12, compared to two control bioreactors): higher viability
- daily viable cell density (MYO-29 cell line [1]; 20 mM or 40 mM carnosine added day 4, vs controls): fairly similar with the exception of the bioreactor with 4 mM of carnosine
- cumulative specific cellular productivity (MYO-29 cell line [1]; 40 mM carnosine added day 4): higher
- cytotoxicity ([2]; Dulbecco's Modified Eagle's Medium (DMEM), contains 1 mM pyruvate): not
- cytotoxicity ([2]; Minimal Essential Medium (MEM), lower glucose levels): cytotoxic
- lifespan of cells [3]: extend the lifespan
- daily cell viability upon being harvested (MYO-29 cell line [4]; harvest day 14, compared to bioreactors without carnosine): higher
- titer at the time of harvest (MYO-29 cell line [4]; harvest day 14, vs controls): higher titer
- cumulative specific cellular productivity (MYO-29 cell line [4]; vs controls): better
- high molecular weight aggregates (MYO-29 cell line [4]; vs controls): decrease
- acidic peaks (MYO-29 cell line [5]): decreasing
- high molecular weight aggregates (MYO-29 cell line [5]): decreasing
- amount of misfolded and/or aggregated TNFR fusion protein ([6]; hydrophobic interaction chromatography (HIC), vs controls): significantly reduced
- amount of high molecular weight (HMW) aggregates ([6]; size exclusion chromatography (SEC), vs controls): significantly reduced
- cell growth (viable cell density) [6, 8]: not significantly affected
- cell viability [6, 8]: not significantly affected
- glycosylation of the produced TNFR fusion protein (total sialylation, sialylated N-linked oligosaccharides) ([6]; vs controls): not significantly different
- product titer ([6]; vs controls): increased
- specific cellular productivity ([6]; vs controls): increased

SMILES: CCCC(=O)[O-].[Na+] [sodium butyrate]
- cell growth and viable cell number [7]: cell growth ceases and the viable cell number decreases

Source: patent US12054762B2, “Methods of protein production using anti-senescence compounds” (WYETH LLC, priority 2007, dated 2024)
